# Legend:
# [1] = In vitro inhibition of calcium phosphate crystallization in human plasma (spectrophotometric assay); assay type: biochemical; settings: 0-100 μM, 1.5 mM phosphate, 12.5 mM calcium, pH 7.4, absorbance 550 nm, slope 6-24 min, read-out: Relative Potency
# Method: The in vitro efficacy of the IP4-4,6 substituted derivatives (e.g., Compounds 1 to 53) of the invention on the inhibition of calcium phosphate crystallization in human plasma samples was evaluated according to a spectrophotometric assay previously described in the art (Ferrer M, et al., Sci Rep 2017; 7:6858, doi:10.1038/s41598-017-07203-x).
# A 96-well plate was employed. Plasma was spiked (1 volume of the IP4-4,6 substituted derivatives of the invention per 19 volumes of plasma) with increasing concentrations of the derivatives in the range of 0-100 μM. Plasma was then centrifuged at 10,000 g at rt and subsequently mixed with a mixture of 5 mM hydrogen phosphate and 41.67 mM calcium to attain final concentrations of 1.5 mM phosphate and 12.5 mM calcium, respectively. All reagent solutions were filtered, and pH adjusted to 7.4.
# Crystallization of calcium phosphate was monitored spectrophotometrically for 30 min at rt by measuring the increments in absorbance at 550 nm using the Biotek Powerwave XS Microplate spectrophotometer (BioTek Instruments, Inc., Winooski, VT, US). The plate was incubated at rt in an orbital shaker and absorbance measured every 3 min.
# Plasma crystallization was assessed based on slope measurement in the linear range between 6 and 24 min from plots of increase in absorbance versus logarithm of time. The efficacy of different myo-inositol phosphates derivatives in preventing in vitro formation of calcium phosphate crystals was assessed in human plasma samples using the slopes obtained between 6- and 24-min. Inhibition of crystallization was measured by comparing the slopes of the control sample (blank plasma) with those of samples containing the inhibitor as shown below: […]
# tissue calcification = test: In vivo tissue calcification (calcium content by ICP-OES) in vitamin D3-induced limb ischemia rat model; settings: SD rats, vitamin D3 150,000 IU/kg s.c. D1-D3, 30 mg/kg s.c. daily D1-D5, sacrifice D5; for Inhibition of calcification (%) Femoral: femoral arteries; for Inhibition of calcification (%) Kidney: right kidney
# Method: (§1) The effects of compounds 1, 6, 9, 14, 18, 31, and 39 over blood perfusion and tissue calcification after the inception of limb ischemia were tested using a rat model for a duration of 5 days. Limb ischemia was induced to all groups from D1 to D3 excepting the sham group, to which no ischemia was induced. The animals were administered placebo and active agent formulations from D1 to D5. Observations were taken at several points during the treatment from D0 to D5. All animals were weighed every day before treatment. Seventy-two male Sprague Dawley (SD) rats (Envigo Corp., Huntingdon, GB) weighing approximately 150-200 g were used. The rats were fed with a […]® Rod14-H diet ([…] GmbH, Soest, DE). The rats were divided in 9 groups, 8 animals per group, as follows: • Group 1-Control (Sham) • Group 2-Physiological saline solution • Group 3-Compound 1 • Group 4-Compound 6 • Group 5-Compound 9 • Group 6-Compound 14 • Group 7-Compound 18 • Group 8-Compound 31 • Group 9-Compound 39 Limb ischemia was induced in the rats of groups 2-9 by subcutaneous administration of 150,000 IU/kg vitamin D3 (cholecalciferol, Duphafral D3 1000; Zoetis Inc., Parsippany, NJ, US) in physiological saline solution (2 mL/kg) every day during D1 to D3. The rats of group 1 were not administered vitamin D3. The rats in groups 1 and 2 were administered 2 mL/kg of physiological saline solution daily from D1 to D5 via subcutaneous route. The animals in groups 3-9 were administered subcutaneously 30 mg/kg of compounds 1, 6, 9, 14, 18, 31, and 39, respectively, in physiological saline solution (2 mL/kg), every day from D1 to D5. All rats of groups 1-9 were sacrificed on D5 30 minutes after dosing for determining their Ca baseline values. The animals were anesthetized by isoflurane inhalation. The whole aorta, carotids, femoral arteries, heart, and right kidney of the subjects were collected for calcium content measurement. The tissues were lyophilized for 48-72 h and weighed. The lyophilized tissues were then digested using a 1:1 HNO3:HClO4 mixture in a dry bath incubator for 2-4 h at 180° C. The digested tissues were subsequently diluted using ultra-pure MilliQ® water (MilliporeSigma (Merck KGaA), Burlington, MA, US) to a final volume of 5 mL (i.e., for femoral arteries and carotids) of 10 mL (i.e., for heart, kidneys, and aorta). Calcium content was quantified via inductively coupled plasma optical emission spectrometry (ICP-OES) using an Optima 7300 DV ICP-OES System spectrometer (PerkinElmer, Inc., Waltham, MA, US) according to the manufacturer's instructions. Average blood perfusion recovery compared to vehicle and sham were also calculated. Recovery for sham was 100%. Blood perfusion recovery calculated was using the following equation: 100-((BP sham-BP new drug)/(BP sham-BP vehicle)*100).
# blood perfusion = test: In vivo blood perfusion (laser doppler perfusion imaging) in vitamin D3-induced limb ischemia rat model; settings: average blood perfusion recovery vs vehicle and sham (sham 100%), SD rats, 30 mg/kg s.c. daily D1-D5
# Method: as §1, with “to D5. Limb functional and ischemia status were evaluated by using a laser doppler perfusion imaging apparatus PeriCam PSI Normal Resolution (Perimed AB, Järfälla, SE) in all groups at D0 and D5. The perfusion difference and perfusion ratio were calculated by comparing the baseline and either D0 or D5 readings for each group. In addition, the blood perfusion ratio of each treatment group (i.e., groups 2 to 9) to sham group was also calculated. All rats” for “to D5. All rats”
Structure (SMILES),EC50 [1] [µM],Inhibition of calcification (%) Aorta (tissue calcification),Inhibition of calcification (%) Carotid (tissue calcification),Inhibition of calcification (%) Femoral (tissue calcification),Inhibition of calcification (%) Heart (tissue calcification),Inhibition of calcification (%) Kidney (tissue calcification),BP recovery (%) (blood perfusion)
"CCCCCO[C@@H]1[C@@H](OP(=O)([O-])[O-])[C@H](OCCCCC)[C@@H](OP(=O)([O-])[O-])[C@@H](OP(=O)([O-])[O-])[C@H]1OP(=O)([O-])[O-].[Na+].[Na+].[Na+].[Na+].[Na+].[Na+].[Na+].[Na+] [Compound 1, 4,6-O-dipentyl-myo-inositol-1,2,3,5-tetrakis(phosphate) octasodium salt]",≤ 5,Over (Average inhibition percentage over or under 25% inhibition of calcification.),Under (Average inhibition percentage over or under 25% inhibition of calcification.),Over (Average inhibition percentage over or under 25% inhibition of calcification.),Over (Average inhibition percentage over or under 25% inhibition of calcification.),Over (Average inhibition percentage over or under 25% inhibition of calcification.),Under (Average blood perfusion recovery over or under 25%.)
"O=P([O-])([O-])O[C@@H]1[C@@H](OCCCCCO)[C@H](OP(=O)([O-])[O-])[C@H](OP(=O)([O-])[O-])[C@H](OP(=O)([O-])[O-])[C@H]1OCCCCCO.[Na+].[Na+].[Na+].[Na+].[Na+].[Na+].[Na+].[Na+] [Compound 6, 4,6-O-bis(5-hydroxypentyl)-myo-inositol-1,2,3,5-tetrakis(phosphate) octasodium salt]",≤ 5,Over (Average inhibition percentage over or under 25% inhibition of calcification.),Under (Average inhibition percentage over or under 25% inhibition of calcification.),Over (Average inhibition percentage over or under 25% inhibition of calcification.),Over (Average inhibition percentage over or under 25% inhibition of calcification.),Over (Average inhibition percentage over or under 25% inhibition of calcification.),Over (Average blood perfusion recovery over or under 25%.)
"COCCCCCO[C@@H]1[C@@H](OP(=O)([O-])[O-])[C@H](OCCCCCOC)[C@@H](OP(=O)([O-])[O-])[C@@H](OP(=O)([O-])[O-])[C@H]1OP(=O)([O-])[O-].[Na+].[Na+].[Na+].[Na+].[Na+].[Na+].[Na+].[Na+] [Compound 9, 4,6-O-bis(5-methoxypentyl)-myo-inositol-1,2,3,5-tetrakis(phosphate) octasodium salt]",≤ 5,Under (Average inhibition percentage over or under 25% inhibition of calcification.),Under (Average inhibition percentage over or under 25% inhibition of calcification.),Over (Average inhibition percentage over or under 25% inhibition of calcification.),Over (Average inhibition percentage over or under 25% inhibition of calcification.),Over (Average inhibition percentage over or under 25% inhibition of calcification.),Over (Average blood perfusion recovery over or under 25%.)
"NCCCCCO[C@@H]1[C@@H](OP(=O)([O-])[O-])[C@H](OCCCCCN)[C@@H](OP(=O)([O-])[O-])[C@@H](OP(=O)([O-])[O-])[C@H]1OP(=O)([O-])[O-].[Na+].[Na+].[Na+].[Na+].[Na+].[Na+].[Na+].[Na+] [Compound 14, 4,6-O-bis(5-aminopentyl)-myo-inositol-1,2,3,5-tetrakis(phosphate) octasodium salt]",≤ 5,Under (Average inhibition percentage over or under 25% inhibition of calcification.),Under (Average inhibition percentage over or under 25% inhibition of calcification.),Over (Average inhibition percentage over or under 25% inhibition of calcification.),Over (Average inhibition percentage over or under 25% inhibition of calcification.),Over (Average inhibition percentage over or under 25% inhibition of calcification.),Over (Average blood perfusion recovery over or under 25%.)
